Measurements: patent publication US6610677B2, “Pyrazole compounds useful as protein kinase inhibitors” (Vertex Pharmaceuticals Incorporated, priority 2000, dated 2003)

biological target: T1, GSK-3β (AA 1-420) (Homo sapiens, UniProt P49841); experiment: Ki determination for the inhibition of GSK-3 (coupled enzyme system); format: biochemical; conditions: 20 μM ATP, 300 μM peptide, 20 nM GSK-3β, 30° C
T1 construct: GSK-3β (AA 1-420)
Description: Compounds were screened for their ability to inhibit GSK-3β (AA 1-420) activity using a standard coupled enzyme system (Fox et al. (1998) Protein Sci. 7, 2249). Reactions were carried out in a solution containing 100 mM HEPES (pH 7.5), 10 mM MgCl2, 25 mM NaCl, 300 μM NADH, 1 mM DTT and 1.5% DMSO. Final substrate concentrations in the assay were 20 μM ATP (Sigma Chemicals, St Louis, Mo.) and 300 μM peptide (HSSPHQS(PO3H2)EDEEE, American Peptide, Sunnyvale, Calif.). Reactions were carried out at 30° C. and 20 nM GSK-3β. Final concentrations of the components of the coupled enzyme system were 2.5 mM phosphoenolpyruvate, 300 μM NADH, 30 μg/ml pyruvate kinase and 10 μg/ml lactate dehydrogenase.
An assay stock buffer solution was prepared containing all of the reagents listed above with the exception of ATP and the test compound of interest. The assay stock buffer solution (175 μl) was incubated in a 96 well plate with 5 μl of the test compound of interest at final concentrations spanning 0.002 μM to 30 μM at 30° C. for 10 min. Typically, a 12 point titration was conducted by preparing serial dilutions (from 10 mM compound stocks) with DMSO of the test compounds in daughter plates. The reaction was initiated by the addition of 20 μl of ATP (final concentration 20 μM). Rates of reaction were obtained using a Molecular Devices Spectramax plate reader (Sunnyvale, Calif.) over 10 min at 30° C. The Ki values were determined from the rate data as a function of inhibitor concentration.

T1 sequence (P49841 whole entry, the tested form may be a part): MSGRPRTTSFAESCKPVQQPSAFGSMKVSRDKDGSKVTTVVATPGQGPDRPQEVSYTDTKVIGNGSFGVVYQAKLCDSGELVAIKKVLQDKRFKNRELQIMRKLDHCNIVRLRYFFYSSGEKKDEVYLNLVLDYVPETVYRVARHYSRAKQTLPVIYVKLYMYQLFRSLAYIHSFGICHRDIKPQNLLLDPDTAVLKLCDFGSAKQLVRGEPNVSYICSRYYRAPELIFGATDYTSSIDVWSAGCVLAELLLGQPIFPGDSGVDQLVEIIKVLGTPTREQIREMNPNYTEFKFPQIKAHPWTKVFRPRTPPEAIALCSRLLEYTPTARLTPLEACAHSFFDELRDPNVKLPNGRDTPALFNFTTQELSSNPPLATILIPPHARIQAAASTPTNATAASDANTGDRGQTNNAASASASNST

SMILES	Ki [µM]
FC(F)(F)c1ccccc1-c1nc2c(c(Nc3n[nH]c4ccccc34)n1)CCC2 [II-113, (1H-Indazol-3-yl)-[2-(2-trifluoromethyl-phenyl)-6,7-dihydro-5H-cyclopentapyrimidin-4-yl]-amine]	< 0.1
Fc1ccc2[nH]nc(Nc3nc(-c4ccccc4C(F)(F)F)nc4c3CNCC4)c2c1 [II-16, (5-Fluoro-1H-indazol-3-yl)-[2-(2-trifluoromethyl-phenyl)-5,6,7,8-tetrahydro-pyrido[4,3-d]pyrimidin-4-yl]-amine]	< 0.1
Fc1cccc2c(Nc3nc(-c4ccccc4C(F)(F)F)nc4c3CCCCCC4)n[nH]c12 [II-120, (7-Fluoro-1H-indazol-3-yl)-[2-(2-trifluoromethyl-phenyl)-5,6,7,8,9,10-hexahydro-cyclooctapyrimidin-4-yl]-amine]	< 0.1
Cc1nc(-c2ccccc2Cl)nc(Nc2n[nH]c3c(F)cc(F)cc23)c1C [II-29, [2-(2-Chlorophenyl)-5,6-dimethyl-pyrimidin-4-yl]-(5,7-difluoro-1H-indazol-3-yl)-amine]	< 0.1
Fc1ccc2[nH]nc(Nc3nc(-c4ccccc4C(F)(F)F)nc4c3CCNC4)c2c1 [II-3, (5-Fluoro-1H-indazol-3-yl)-[2-(2-trifluoromethyl-phenyl)-5,6,7,8-tetrahydro-pyrido[3,4-d]pyrimidin-4-yl]-amine]	< 0.1
FC(F)(F)c1ccccc1-c1nc2c(c(Nc3n[nH]c4ccccc34)n1)CCCCCC2 [II-119, (1H-Indazol-3-yl)-[2-(2-trifluoromethyl-phenyl)-5,6,7,8,9,10-hexahydro-cyclooctapyrimidin-4-yl]-amine]	< 0.1
COc1cccc2c(Nc3n[nH]c4c(F)cccc34)nc(-c3ccccc3C(F)(F)F)nc12 [II-92, (7-Fluoro-1H-indazol-3-yl)-[8-methoxy-2-(2-trifluoromethyl-phenyl)-quinazolin-4-yl]-amine]	< 0.1
FC(F)(F)c1ccc2[nH]nc(Nc3nc(-c4ccccc4)nc4c3CCCC4)c2c1 [III-128, (2-Phenyl-5,6,7,8-tetrahydroquinazolin-4-yl)-(5-trifluoromethyl-1H-indazol-3-yl)-amine]	< 0.1
FC(F)(F)c1ccccc1-c1nc(Nc2n[nH]c3c(C(F)(F)F)cccc23)c2ccccc2n1 [II-68, (7-Trifluoromethyl-1H-indazol-3-yl)-[2-(2-trifluoromethyl-phenyl)-quinazolin-4-yl]-amine]	1 to 20
Fc1cc(F)c2[nH]nc(Nc3nc(-c4ccccc4Cl)nc4c3CCC4)c2c1 [II-118, [2-(2-Chloro-phenyl)-6,7-dihydro-5H-cyclopentapyrimidin-4-yl]-(5,7-difluoro-1R-indazol-3-yl)-amine]	< 0.1
Fc1cc(F)c2[nH]nc(Nc3cc(-c4ccccc4C(F)(F)F)nc4ccccc34)c2c1 [Compound V-8, (5,7-Difluoro-1H-indazol-3-yl)-[2-(2-trifluoromethyl-phenyl)-quinolin-4-yl]-amine]	1 to 20
Fc1ccc2[nH]nc(Nc3nc(-c4ccccc4Cl)nc4c3CCCCC4)c2c1 [II-5, [2-(2-Chloro-phenyl)-6,7,8,9-tetrahydro-5H-cycloheptapyrimidin-4-yl]-(5-fluoro-1H-indazol-3-yl)-amine]	< 0.1
Cc1nc(-c2ccccc2C(F)(F)F)nc(Nc2n[nH]c3c(F)cccc23)c1C [II-27, [5,6-Dimethyl-2-(2-trifluoromethyl-phenyl)-pyrimidin-4-yl]-(7-fluoro-1H-indazol-3-yl)-amine]	< 0.1
FC(F)(F)c1ccccc1-c1nc(Nc2n[nH]c3cccc(C(F)(F)F)c23)c2ccccc2n1 [II-65, (4-Trifluoromethyl-1H-indazol-3-yl)-[2-(2-trifluoromethyl-phenyl)-guinazolin-4-yl]-amine]	1 to 20
Fc1ccc2[nH]nc(Nc3nc(-c4ccccc4C(F)(F)F)nc4c3CCCCCC4)c2c1 [II-111, (5-Fluoro-1H-indazol-3-yl)-[2-(2-trifluoromethyl-phenyl)-5,6,7,8,9,10-hexahydro-cyclooctapyrimidin-4-yl]-amine]	< 0.1
Cc1cc(Nc2nc(-c3ccccc3)nc3c2CCCCC3)n[nH]1 [III-8, (5-Methyl-2H-pyrazol-3-yl)-(2-phenyl-6,7,8,9-tetrahydro-5H-cycloheptapyrimidin-4-yl)-amine]	< 0.1
FC(F)(F)c1ccccc1-c1nc(Nc2n[nH]c3ccccc23)cc(-c2ccccc2Cl)n1 [II-23, [6-(2-Chlorophenyl)-2-(2-trifluoromethyl-phenyl)-pyrimidin-4-yl]-(1H-indazol-3-yl)-amine]	< 0.1
O=[N+]([O-])c1ccc(-c2nc(Nc3n[nH]c4c(F)cc(F)cc34)c3ccccc3n2)c(Cl)c1 [II-95, [2-(2-Chloro-4-nitro-phenyl)-quinazolin-4-yl]-(5,7-difluoro-1H-indazol-3-yl)-amine]	< 0.1
Fc1cccc2c(Nc3nc(-c4ccccc4C(F)(F)F)nc4c3CCCC4)n[nH]c12 [II-7, (7-Fluoro-1H-indazol-3-yl)-[2-(2-trifluoromethyl-phenyl)-5,6,7,8-tetrahydroquinazolin-4-yl]-amine]	< 0.1
O=C(c1cc(Nc2nc(N3CCCCC3)nc3ccccc23)[nH]n1)N1CCCCC1 [III-123, [5-(Piperidine-1-carbonyl)-2H-pyrazol-3-yl]-[2-(piperidine-1-yl)-quinazolin-4-yl]-amine]	1 to 20

Results, then the compound that gave them:

Ki [µM]	SMILES
1 to 20	O=c1cc2[nH]nc(Nc3nc(-c4ccccc4)nc4ccccc34)c2nn1-c1ccc(Cl)cc1Cl [III-137, [5-(2,4-Dichloro-phenyl)-6-oxo-5,6-dihydro-1H-pyrazolo[4,3-c]pyridazin-3-yl]-(2-phenyl-quinazolin-4-yl)-amine]
1 to 20	O=C(NCCO)c1cc(Nc2nc(-c3ccccc3)nc3ccccc23)[nH]n1 [III-99]
1 to 20	CC(C)CNC(=O)c1cc(Nc2nc(-c3ccccc3)nc3ccccc23)[nH]n1 [III-91, (5-Isobutylcarbamoyl-2H-pyrazol-3-yl)-(2-phenyl-quinazolin-4-yl)-amine]
< 0.1	COCc1cc(Nc2nc(-c3ccccc3C(F)(F)F)nc3ccccc23)n[nH]1 [II-56, (5-Methoxymethyl-2H-pyrazol-3-yl)-[2-(2-trifluoromethyl-phenyl)-quinazolin-4-yl]-amine]
0.1 to 1	CC(C)(C)c1cc(Nc2nc(-c3ccccc3C(F)(F)F)nc3ccccc23)n[nH]1 [II-49, (5-tert-Butyl-2H-pyrazol-3-yl)-[2-(2-trifluoromethyl-phenyl)-quinazolin-4-yl]-amine]
0.1 to 1	CCCNC(=O)c1cc(Nc2nc(-c3ccccc3)nc3ccccc23)[nH]n1 [III-88, (2-Phenyl-quinazolin-4-yl)-(5-propylcarbamoyl-2H-pyrazol-3-yl)-amine]
0.1 to 1	Cc1cc(Nc2nc(-c3ccccc3O)nc3ccccc23)n[nH]1 [II-44, [2-(2-Hydroxyphenyl)-quinazolin-4-yl]-(5-Methyl-2H-pyrazol-3-yl)-amine]
< 0.1	Fc1cccc2c(Nc3nc(-c4ccccc4C(F)(F)F)nc4ccccc34)n[nH]c12 [II-60, (7-Fluoro-1H-indazol-3-yl)-[2-(2-trifluoromethyl-phenyl)-quinazolin-4-yl]-amine]
1 to 20	Cc1cccc(NC(=O)c2cc(Nc3nc(-c4ccccc4)nc4ccccc34)[nH]n2)c1 [III-94, (2-Phenyl-quinazolin-4-yl)-(5-m-tolylcarbamoyl-2H-pyrazol-3-yl)-amine]
0.1 to 1	O=c1cc2[nH]nc(Nc3nc(-c4ccccc4)nc4ccccc34)c2nn1-c1cccc(C(F)(F)F)c1 [III-138, [6-Oxo-5-(3-trifluoromethyl-phenyl)-5,6-dihydro-1H-pyrazolo[4,3-c]pyridazin-3-yl]-(2-phenyl-quinazolin-4-yl)-amine]
0.1 to 1	CCOc1ccccc1-c1nc(Nc2cc(C)[nH]n2)c2ccccc2n1 [II-45, [2-(2-Ethoxyphenyl)-quinazolin-4-yl]-(5-Methyl-2H-pyrazol-3-yl)-amine]
1 to 20	O=C(c1cc(Nc2nc(-c3ccccc3)nc3ccccc23)[nH]n1)N1CCOCC1 [III-97, [5-(Morpholine-4-carbonyl)-2H-pyrazol-3-yl]-(2-phenyl-quinazolin-4-yl)-amine]
< 0.1	Fc1cccc2c(Nc3nc(-c4ccccc4Cl)nc4ccccc34)n[nH]c12 [II-74, [2-(2-Chloro-phenyl)-quinazolin-4-yl]-(7-fluoro-1H-indazol-3-yl)-amine]
1 to 20	Fc1cccc2[nH]nc(Nc3nc(-c4ccccc4C(F)(F)F)nc4ccccc34)c12 [II-89, (4-Fluoro-1H-indazol-3-yl)-[2-(2-trifluoromethyl-phenyl)-quinazolin-4-yl]-amine]
1 to 20	Cc1cc(C)c2c(Nc3nc(-c4ccccc4C(F)(F)F)nc4ccccc34)n[nH]c2n1 [II-100]
< 0.1	Fc1cc(F)c2[nH]nc(Nc3nc(-c4ccccc4C(F)(F)F)nc4ccccc34)c2c1 [II-71, (5,7-Difluoro-1H-indazol-3-yl)-[2-(2-trifluoromethyl-phenyl)-quinazolin-4-yl]-amine]
1 to 20	NC(=O)c1c[nH]nc1Nc1nc(-c2ccccc2C(F)(F)F)nc2ccccc12 [II-52, (4-Carbamoyl-2H-pyrazol-3-yl)-[2-(2-trifluoromethylphenyl)-quinazolin-4-yl]-amine]
